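Interpolation was linear, between the two tested concentrations surrounding the appropriate level; five concentrations were tested over 48 hours in 96-well plates. GI50 = concentration required for 50% inhibition of growth.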 Active and inactive are the calls of the source. Cut-off read from the data, not from the text of the source: active = GI50 up to about 1.1 µM and inactive = higher.
What was measured:
Experiment in all cases: NCI tumour cell line growth inhibition, 48 h
786-0 = system: 786-0
A498 = system: A498
A549 = system: A549
ACHN = system: ACHN
CAKI-1 = system: CAKI-1
CCRF-CEM = system: CCRF-CEM
COLO 205 = system: COLO 205
DLD-1 = system: DLD-1
DMS-273 = system: DMS-273
EKVX = system: EKVX
HCC 2998 = system: HCC 2998
HCT-116 = system: HCT-116
HCT-15 = system: HCT-15
HL-60 = system: HL-60
HOP-62 = system: HOP-62
HOP-92 = system: HOP-92
HT-29 = system: HT-29
IGROV-1 = system: IGROV-1
K562 = system: K562
KM-20L2 = system: KM-20L2
KM12 = system: KM12
LOX IMVI = system: LOX IMVI
LXFL 529 = system: LXFL 529
M14 = system: M14
M19-MEL = system: M19-MEL
MOLT-4 = system: MOLT-4
Malme-3M = system: Malme-3M
NCI-H226 = system: NCI-H226
NCI-H23 = system: NCI-H23
NCI-H460 = system: NCI-H460
NCI-H522 = system: NCI-H522
OVCAR-3 = system: OVCAR-3
OVCAR-4 = system: OVCAR-4
OVCAR-5 = system: OVCAR-5
OVCAR-8 = system: OVCAR-8
RPMI-8226 = system: RPMI-8226
SF-268 = system: SF-268
SF-295 = system: SF-295
SF-539 = system: SF-539
SK-MEL-28 = system: SK-MEL-28
SK-MEL-2 = system: SK-MEL-2
SK-MEL-5 = system: SK-MEL-5
SK-OV-3 = system: SK-OV-3
SN12C = system: SN12C
SNB-19 = system: SNB-19
SNB-75 = system: SNB-75
SW-620 = system: SW-620
TK-10 = system: TK-10
U-251 = system: U-251
UACC-257 = system: UACC-257
UACC-62 = system: UACC-62
UO-31 = system: UO-31
XF498 = system: XF498

Structure (SMILES): Cc1cc(Cl)ccc1C1OC(=O)c2c1ccc1ccccc21 (stereo not drawn)
- GI50 (786-0): 97.5 µM (inactive)
- GI50 (A498): > 100 µM (inactive)
- GI50 (A549): > 100 µM (inactive)
- GI50 (ACHN): > 100 µM (inactive)
- GI50 (CAKI-1): > 100 µM (inactive)
- GI50 (CCRF-CEM): > 100 µM (inactive)
- GI50 (COLO 205): > 100 µM (inactive)
- GI50 (DLD-1): > 100 µM (inactive)
- GI50 (DMS-273): > 100 µM (inactive)
- GI50 (EKVX): > 100 µM (inactive)
- GI50 (HCC 2998): > 100 µM (inactive)
- GI50 (HCT-116): > 100 µM (inactive)
- GI50 (HCT-15): > 100 µM
- GI50 (HL-60): > 100 µM (inactive)
- GI50 (HOP-62): > 100 µM (inactive)
- GI50 (HOP-92): > 100 µM (inactive)
- GI50 (HT-29): > 100 µM (inactive)
- GI50 (IGROV-1): > 100 µM (inactive)
- GI50 (K562): > 100 µM (inactive)
- GI50 (KM-20L2): > 100 µM (inactive)
- GI50 (KM12): > 100 µM (inactive)
- GI50 (LOX IMVI): > 100 µM (inactive)
- GI50 (LXFL 529): 74.1 µM (inactive)
- GI50 (M14): > 100 µM (inactive)
- GI50 (M19-MEL): > 100 µM (inactive)
- GI50 (MOLT-4): > 100 µM (inactive)
- GI50 (Malme-3M): > 100 µM (inactive)
- GI50 (NCI-H226): > 100 µM (inactive)
- GI50 (NCI-H23): > 100 µM (inactive)
- GI50 (NCI-H460): > 100 µM (inactive)
- GI50 (NCI-H522): > 100 µM (inactive)
- GI50 (OVCAR-3): > 100 µM (inactive)
- GI50 (OVCAR-4): 23.6 µM (inactive)
- GI50 (OVCAR-5): > 100 µM (inactive)
- GI50 (OVCAR-8): > 100 µM (inactive)
- GI50 (RPMI-8226): > 100 µM (inactive)
- GI50 (SF-268): > 100 µM (inactive)
- GI50 (SF-295): > 100 µM (inactive)
- GI50 (SF-539): > 100 µM (inactive)
- GI50 (SK-MEL-28): > 100 µM (inactive)
- GI50 (SK-MEL-2): > 100 µM (inactive)
- GI50 (SK-MEL-5): 58.2 µM (inactive)
- GI50 (SK-OV-3): > 100 µM (inactive)
- GI50 (SN12C): > 100 µM (inactive)
- GI50 (SNB-19): > 100 µM (inactive)
- GI50 (SNB-75): 29.9 µM (inactive)
- GI50 (SW-620): > 100 µM (inactive)
- GI50 (TK-10): > 100 µM (inactive)
- GI50 (U-251): > 100 µM (inactive)
- GI50 (UACC-257): > 100 µM (inactive)
- GI50 (UACC-62): > 100 µM (inactive)
- GI50 (UO-31): > 100 µM (inactive)
- GI50 (XF498): > 100 µM (inactive)
